Measurements published in patent US9113629B2, “4-amino-6-(4-substituted-phenyl)-picolinates and 6-amino-2-(4-substituted-phenyl)-pyrimidine-4-carboxylates and their use as herbicides” (DOW AGROSCIENCES LLC, priority 2013, dated 2015).
Read-outs that look alike come from different tables or passages of the source.

Columns and labels:
[1] = test system: Key Grass and Sedge Weeds as well as Grass Crops; experiment: Post-emergent Test II herbicidal activity (Table 6); type: in vivo; details: post-emergence, 336 h; for pest or weed control at 70 g/ha: 70 g ai/ha; for pest or weed control at 140 g/ha: 140 g ai/ha
Summary of the method: (§1)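 Test species were raised 7–21 d under greenhouse conditions until reaching the first or second true leaf, sprayed with formulated compound at 187 L/ha, and kept subirrigated to avoid wash-off. Fourteen days later, damage was rated visually on a 0–100% scale against untreated plants.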

[2] = test system: Key Broadleaf Weed and Crop Species; experiment: Post-emergent Test II herbicidal activity (Table 5); type: in vivo; details: post-emergence, 336 h, 14 days after application; for pest or weed control at 70 g/ha: application rate 70 g ai/ha; for pest or weed control at 140 g/ha: application rate 140 g ai/ha
Summary of the method: as §1

[3] = CYPES: yellow nutsedge (Cyperus esculentus), read-out: Visual Growth Reduction (%) 14 Days After Application, CYPES
[4] = DIGSA: crabgrass (Digitaria sanguinalis), read-out: Visual Growth Reduction (%) 14 Days After Application, DIGSA
[5] = ECHCG: barnyardgrass (Echinochloa crus-galli), read-out: Visual Growth Reduction (%) 14 Days After Application, ECHCG
[6] = ORYSA: rice (Oryza sativa), crop, read-out: Visual Growth Reduction (%) 14 Days After Application, ORYSA
[7] = SETFA: giant foxtail (Setaria faberi), read-out: Visual Growth Reduction (%) 14 Days After Application, SETFA
[8] = SORVU: grain sorghum (Sorghum vulgare), read-out: Visual Growth Reduction (%) 14 Days After Application, SORVU
[9] = TRZSS (wheat, Triticum aestivum), crop, read-out: Visual Growth Reduction (%) 14 Days After Application, TRZSS
[10] = ZEAMX: maize, corn (Zea mays), crop, read-out: Visual Growth Reduction (%) 14 Days After Application, ZEAMX
[11] = ABUTH: velvetleaf (Abutilon theophrasti), read-out: Visual Growth Reduction (%) 14 Days After Application, ABUTH
[12] = AMARE: redroot pigweed (Amaranthus retroflexus), read-out: Visual Growth Reduction (%) 14 Days After Application, AMARE
[13] = BRSNN: oilseed-rape, canola (Brassica napus), read-out: Visual Growth Reduction (%) 14 Days After Application, BRSNN
[14] = CHEAL: lambsquarters (Chenopodium album), read-out: Visual Growth Reduction (%) 14 Days After Application, CHEAL
[15] = EPHHL: wild poinsettia (Euphorbia heterophylla), read-out: Visual Growth Reduction (%) 14 Days After Application, EPHHL
[16] = HELAN: sunflower (Helianthus annuus), read-out: Visual Growth Reduction (%) 14 Days After Application, HELAN
[17] = VIOTR: wild pansy (Viola tricolor), read-out: Visual Growth Reduction (%) 14 Days After Application, VIOTR

| Structure (SMILES) | pest or weed control at 70 g/ha [1, 3] | pest or weed control at 140 g/ha [1, 3] | pest or weed control at 70 g/ha [1, 4] | pest or weed control at 140 g/ha [1, 4] | pest or weed control at 70 g/ha [1, 5] | pest or weed control at 140 g/ha [1, 5] | pest or weed control at 70 g/ha [1, 6] | pest or weed control at 140 g/ha [1, 6] | pest or weed control at 70 g/ha [1, 7] | pest or weed control at 140 g/ha [1, 7] | pest or weed control at 70 g/ha [1, 8] | pest or weed control at 140 g/ha [1, 8] | pest or weed control at 70 g/ha [1, 9] | pest or weed control at 140 g/ha [1, 9] | pest or weed control at 70 g/ha [1, 10] | pest or weed control at 140 g/ha [1, 10] | pest or weed control at 70 g/ha [2, 11] | pest or weed control at 140 g/ha [2, 11] | pest or weed control at 70 g/ha [2, 12] | pest or weed control at 140 g/ha [2, 12] | further results |
| --- | --- | --- | --- | --- | --- | --- | --- | --- | --- | --- | --- | --- | --- | --- | --- | --- | --- | --- | --- | --- | --- |
| Nc1cc(-c2ccc(I)cc2)nc(C(=O)O)c1Cl [Compound 4] | 45 to 59% | 95 to 100% | 60 to 74% | 75 to 84% | 75 to 84% | 85 to 94% | 0 to 29% | 0 to 29% | 60 to 74% | 60 to 74% | 75 to 84% | 75 to 84% | 75 to 84% | 75 to 84% | 0 to 29% | 0 to 29% | 95 to 100% | 95 to 100% | 85 to 94% | 85 to 94% | pest or weed control at 70 g/ha [2, 13]: 95 to 100%; pest or weed control at 140 g/ha [2, 13]: 95 to 100%; pest or weed control at 70 g/ha [2, 14]: 95 to 100%; pest or weed control at 140 g/ha [2, 14]: 95 to 100%; pest or weed control at 70 g/ha [2, 15]: 95 to 100%; pest or weed control at 140 g/ha [2, 15]: 95 to 100%; pest or weed control at 70 g/ha [2, 16]: 75 to 84%; pest or weed control at 140 g/ha [2, 16]: 85 to 94%; pest or weed control at 70 g/ha [2, 17]: 0 to 29%; pest or weed control at 140 g/ha [2, 17]: 0 to 29% |
| COC(=O)c1nc(-c2ccc([N+](=O)[O-])cc2)c(F)c(N)c1Cl [Compound 95, methyl 4-amino-3-chloro-5-fluoro-6-(4-nitrophenyl)picolinate] | 45 to 59% | 75 to 84% | 0 to 29% | 0 to 29% | 85 to 94% | 95 to 100% | 0 to 29% | 0 to 29% | 0 to 29% | 0 to 29% | 60 to 74% | 60 to 74% | 0 to 29% | 0 to 29% | 0 to 29% | 0 to 29% | 60 to 74% | 75 to 84% | 95 to 100% | 95 to 100% | pest or weed control at 70 g/ha [2, 13]: 0 to 29%; pest or weed control at 140 g/ha [2, 13]: 30 to 44%; pest or weed control at 70 g/ha [2, 14]: 95 to 100%; pest or weed control at 140 g/ha [2, 14]: 95 to 100%; pest or weed control at 70 g/ha [2, 15]: 95 to 100%; pest or weed control at 140 g/ha [2, 15]: 95 to 100%; pest or weed control at 70 g/ha [2, 16]: 95 to 100%; pest or weed control at 140 g/ha [2, 16]: 95 to 100%; pest or weed control at 70 g/ha [2, 17]: 0 to 29%; pest or weed control at 140 g/ha [2, 17]: 0 to 29% |
